Results taken from the METLIN SMRT retention time set (Domingo-Almenara et al. 2019).

Test: gradient 5% acetonitrile 3 min, to 50% in 2 min, to 85% in 15 min, held 3 min, 100 µL/min
Conditions: column: Zorbax Extend-C18 2.1 x 50 mm; eluents: water / acetonitrile, 0.1% formic acid
Method in brief: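 Mixtures of ~100 pure standards were chromatographed on a Zorbax Extend-C18 column (2.1 × 50 mm, 1.8 μm) at 100 μL/min using water and acetonitrile, each with 0.1% formic acid. Detection used a quadrupole time-of-flight mass spectrometer in positive and negative ionization mode, and data collection spanned 3 months. Retention time was obtained from adduct peaks picked computationally and each checked manually.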

| Structure (SMILES) | RP-LC retention time [s] |
| --- | --- |
| CC12CC(NC(=O)N1c1cccc(C(=O)NCc3ccco3)c1)c1cc(Br)ccc1O2 (stereo not drawn) | 846 |
| COCc1noc(CC2CCOC3(CCN(Cc4ccc5c(c4)CCO5)CC3)C2)n1 (stereo not drawn) | 646 |
| CCc1cccc(NC(=O)Cn2c(=O)c3cc(C)nn3c3ncccc32)c1 | 767 |
| CC(C)n1c(N2CCCN(C(=O)c3ccccn3)CC2)cc(=O)n(C(C)C)c1=O | 712 |
| Cc1cnc(-c2ccccc2)n1CCNS(=O)(=O)c1ccccc1 | 629 |
| CCc1cc(=O)n(CC(=O)Nc2cccc(C)c2)c(N)n1 | 600 |
| CCC(=O)N1CCc2cc(N3CC(C(=O)Nc4ccc(C)cc4)CC3=O)ccc21 (stereo not drawn) | 786 |
| Cc1cc(C)cc(NC(=O)C2CCN(Cc3cnn(-c4ccccc4)c3-n3cccc3)CC2)c1 | 794 |
| Cc1ccc(S(=O)(=O)N2CCn3c(nn(CC4CC4)c3=O)C2)c(C)c1 | 809 |
| COc1ccc(Cn2nc3ccc(S(=O)(=O)N4CCOCC4)cn3c2=O)cc1 | 792 |
| CC(C)(C)c1noc(-c2ccnc(-n3cnc(C(=O)NC4CCCCC4)c3)c2)n1 | 1100 |
| CCc1cccc(NC(=O)Cn2nc3c(Sc4ccccc4)nccn3c2=O)c1 | 1010 |
| COc1cc(C)c2c(c1C=O)Oc1c(c(C)c(O)c3c1C(O)OC3=O)OC2=O (stereo not drawn) | 840 |
| O=C(NCCNC(=O)c1ccc(N2CCOCC2)nn1)c1ccc(NC(=O)C2CC2)cc1 | 599 |
| CCCN1C(=O)c2c(C(=O)OC)ncn2CC1(C)C(=O)NCc1ccccc1 (stereo not drawn) | 640 |
| Cc1ccc(NC(=O)C(C)C2CCN(C(=O)Nc3ccccc3)CC2)cc1C (stereo not drawn) | 900 |
| Cc1cc(C)cc(S(=O)(=O)N2CCC(c3nc(C(=O)N4CCCC4)c(C)o3)CC2)c1 | 1010 |
| Cc1ccc(NC(=O)Cn2c(-c3cnccn3)nc(C)c(C)c2=O)cc1C | 774 |
| Cc1cccc(NC(=O)Cn2cnc3c(sc4nc(-c5ccccc5)ccc43)c2=O)c1 | 1040 |
| COCC(=O)NC1CCC12CCN(S(=O)(=O)C(C)C)CC2 (stereo not drawn) | 682 |
| COCCn1cc2c3c(cccc31)CN(C(=O)Nc1ccc(C)cc1C)CC2 | 970 |
| COc1ccc(-n2c(=O)n(C)c(=O)c3cc(C(=O)Nc4ccc(C(N)=O)cc4)cnc32)cc1 | 668 |

| Structure (SMILES) | RP-LC retention time [s] |
| --- | --- |
| COC(=O)C1=CCCCCC(N2CCOCC2)=C1C(=O)OC | 684 |
| COCCNC(=O)NCCS(=O)(=O)N1CCN(c2cccc(C)c2)CC1 | 661 |
| COC(=O)c1ccccc1Nc1c(-c2ccc(C)cc2)nc2cnc(Br)cn12 | 1190 |
| Cc1nc2cc3c(cc2n1CC(=O)NCc1ccc(Cl)cc1)OCCO3 | 652 |
| Cc1ccc(-c2csc(-c3cccn3CC(=O)NCc3ccco3)n2)cc1 | 1100 |
| CC(C)n1cc(S(=O)(=O)Nc2ccc(Cl)cc2)c2cccnc21 | 862 |
| CCOc1cccc(-c2noc(Cn3c(=O)n(-c4ccc(F)cc4)c(=O)c4sccc43)n2)c1 | 1050 |
| CCn1c(=O)sc2cc(S(=O)(=O)N3CCC(C(=O)Nc4ccc(F)cc4F)CC3)ccc21 | 921 |
| CSc1cccc(NC(=O)N2CCN(Cc3nc4ccc(C)cc4o3)CC2)c1 | 776 |
| CCCC(CCC)C(=O)N1CCC(Cc2nnc(C3CCOCC3)o2)C1 (stereo not drawn) | 755 |
| CS(=O)(=O)N1CCN(C(=O)CCC2CCN(c3cc(NC4CC4)ncn3)CC2)CC1 | 606 |
| O=c1[nH]cc(S(=O)(=O)NC2CCCC2)c(=O)[nH]1 | 600 |
| Cn1ncc2c3ccccc3n(CC(=O)NCCc3ccco3)c2c1=O | 904 |
| O=C(NCc1ccc(Br)cc1)C1CCCN(c2cnc3nccnc3c2)C1 (stereo not drawn) | 755 |
| Cc1cccc(C2(O)C(=O)N(Cc3ccc(C#N)cc3)c3ccccc32)c1 (stereo not drawn) | 825 |
| O=C(Cn1cc(-c2ccc(F)cc2)oc1=O)NCc1ccc(N2CCCCC2)cc1 | 635 |
| COc1ccc(Cl)cc1NC(=O)NC(C)C(=O)N1CCc2ccccc21 (stereo not drawn) | 1000 |
| O=C(NC1CCCCC1)c1nnc(-c2ccc(S(=O)(=O)N3CCOCC3)cc2)o1 | 854 |
| O=C(Nc1ccc(OCc2nnc(-c3ccccc3)o2)cc1)c1cccnc1Cl | 793 |
| O=C(Nc1ccc(Cl)cc1)C1CCCN(S(=O)(=O)c2c[nH]c(C(=O)N3CCCC3)c2)C1 (stereo not drawn) | 862 |
| O=C(O)C1CCN(c2nc3ccc(-c4cccs4)nc3s2)CC1 | 837 |
| COC(=O)c1ccc(NC(=O)C2CCCN(S(=O)(=O)c3cc(-c4noc(C)n4)cs3)C2)cc1 (stereo not drawn) | 984 |

| Structure (SMILES) | RP-LC retention time [s] |
| --- | --- |
| CCCCC(=O)N1CCN(c2nc3ccccc3nc2C(F)(F)F)CC1 | 1080 |
| CS(=O)(=O)N1CCN(CCNC(=O)NCc2cccc3ccccc23)CC1 | 570 |
| COc1cccc(NC(=O)N2CCc3nc(-c4ccccc4)ncc3C2)c1 | 884 |
| Cc1ccc(NC(=O)Cn2nc3c(N4CCN(c5ccccc5C)CC4)nccn3c2=O)cc1F | 1110 |
| COc1ccc(C(=O)N2CCC[C@H]2c2nc(-c3ccccc3)n[nH]2)cn1 | 659 |
| Cc1nc(C)c(-c2nnc(NC(=O)c3ccc(=O)[nH]n3)o2)s1 | 578 |
| O=C(CCn1ccc2cc(S(=O)(=O)N3CCCCCC3)ccc21)N1CCN(c2ccccn2)CC1 | 710 |
| O=C(c1cn2c(n1)CSCC2)N(Cc1ccccc1)Cc1ccco1 | 736 |
| Cc1ccccc1-n1ncc2c(C)nn(CC(=O)Nc3cccc(C(F)(F)F)c3)c(=O)c21 | 941 |
| COc1ccc(OC)c(Nc2c(-c3ccc4c(c3)OCO4)nc3cnccn23)c1 | 829 |
| COc1ccc(OC)c(S(=O)(=O)N2CCCC(C(=O)NCCO)C2)c1 (stereo not drawn) | 636 |
| CCCN1CCN(C(=O)C2CCN(c3nc4cccnc4s3)CC2)CC1 | 574 |
| Cc1ccc(-c2nc3cnccn3c2NCCC(=O)NC(C)c2cccs2)cc1 (stereo not drawn) | 734 |
| O=C(Cc1ccccc1F)N1CCCn2nc(-c3ccc(Cl)cc3)cc2C1 | 979 |
| Cc1c2cnn(-c3ccccc3)c(=O)c2c(C)n1C(C)C(=O)NCCN1CCCC1 (stereo not drawn) | 617 |
| COc1ccc(Oc2cc3c(cc2NC(=O)Nc2ccccc2)n(C)c(=O)n3C)cc1 | 893 |
| CC(C)C(=O)NCc1cnn(-c2ccc(C(=O)NCC3CCCO3)cc2)c1 (stereo not drawn) | 640 |
| Cc1nc(C2CCCN2Cc2ccc(C)s2)n[nH]1 (stereo not drawn) | 554 |
| Cc1ccc(Nc2c(-c3ccc4c(c3)OCO4)nc3cnccn23)c(C)c1 | 933 |
| C=CCn1c(C)c(CC(=O)Nc2ccc(F)cc2)c(=O)n2nc(-c3ccc(C)cc3)nc12 | 945 |
| CC1CCC2(CC1)NC(=O)N(CC(=O)Nc1ccc3c(c1)OCO3)C2=O (stereo not drawn) | 708 |
| CC1=NN(c2ccccc2)C(=O)C1C(=O)c1ccccc1Br (stereo not drawn) | 1040 |

| Structure (SMILES) | RP-LC retention time [s] |
| --- | --- |
| COc1ccc(Cl)cc1S(=O)(=O)c1cnc(N2CCC(C)CC2)nc1N | 1040 |
| O=C(Nc1cccc(Br)c1)N1CCC(N2CCN(Cc3ccccc3)C2=O)CC1 | 847 |
| CCn1nc(CNC(=O)c2ccc(Br)o2)c2ccccc21 | 881 |
| COc1ccc(-c2cc(C(=O)Nc3ccc(F)cc3)sn2)cc1 | 1090 |
| O=C(CN1C(=O)CCCc2cc(S(=O)(=O)N3CCCC3)ccc21)NCc1ccccc1 | 885 |
| O=S(=O)(c1ccc2c(c1)CCC2)N1CCC(Cc2nc(-c3cccnc3)n[nH]2)C1 (stereo not drawn) | 694 |
| O=C(NCc1ccccn1)C1CC(=O)N(c2n[nH]c3cc(Br)ccc23)C1 (stereo not drawn) | 600 |
| CC(=O)N1CCc2cc(N3CC(C(=O)Nc4ccccc4F)CC3=O)ccc21 (stereo not drawn) | 690 |
| COc1ccc(C)cc1NC(=O)Cn1ncc2c(c1=O)N(C1CC1)C(=O)CS2 | 794 |
| Cc1ccc(Nc2nc(C(=O)NC3CCS(=O)(=O)C3)nc3ccccc23)cc1 (stereo not drawn) | 685 |
| COc1ccc(NC(=O)N2[C@H]3CC[C@@H]2c2cnc(-c4ccc(F)cc4)nc2C3)c(OC)c1 | 961 |
| CCc1noc(NC(C)=O)c1-c1ccc(C)c(S(=O)(=O)N2CCN(c3ccccc3)CC2)c1 | 964 |
| CC1SC(C)C(=O)N(CC(=O)Nc2ccc3c(c2)OCCO3)C1=O (stereo not drawn) | 735 |
| O=S(=O)(c1ccc(OC(F)(F)F)cc1)N1CCC(c2nnc(C(F)(F)F)o2)CC1 | 1000 |
| COc1ccc(CCNC(=O)CSC2CCc3ccccc3NC2=O)cc1OC (stereo not drawn) | 708 |
| CCOC(=O)c1ccc(NC(=O)Cn2c(=O)nc(N3CCC(C)CC3)c3ccccc32)cc1 | 872 |
| Cc1ccc(Cl)cc1N(C)C(=O)Cn1ccc2c(=O)n(C)c(=O)n(C)c21 | 738 |
| Cc1ncc2c(n1)C[C@@H]1CC[C@H]2N1C(=O)Nc1ccc2c(c1)OCCO2 | 630 |
| Cc1ccc(C)c(-c2coc(-c3ccc(NC(=O)C4CCCCC4)cc3)n2)c1 | 1370 |
| CN(CCCC(=O)O)S(=O)(=O)c1ccc(N)cc1 | 598 |
| O=C1C(c2cccnc2)N(CCCc2ccccc2)C(=O)CN1c1ccccc1 (stereo not drawn) | 776 |
| CCCn1cc2c3c(cccc31)CN(C(=O)COc1ccc(F)cc1)CC2 | 1030 |
